Among the data in patent US9440962B2, “Benzisoxazoles” (Hoffmann-La Roche Inc., priority 2012, dated 2016) are melting point and EC (150% of control) values, retold here.

In data set [1] the test system is human embryonic stem cell derived neural stem cells (NSCs). The data set is described as follows: Neural stem cell proliferation assay (neurogenesis assay, ATP levels by CellTiterGlo). The format is cell-based. To be noted: 96 h, compound concentration at which 150% activity of control (100%) is reached, ATP levels after 4 days incubation, dose response 8 μM to 8 nM. As to the method:
Neural Stem Cell Proliferation Assay
Neurogenic properties of small molecules are determined based on the proliferation of human embryonic stem cell derived neural stem cells (NSCs) which were derived via a dual smad inhibition as previously described (Chambers, S. M., et al., Highly efficient neural conversion of human ES and iPS cells by dual inhibition of SMAD signaling, Nature biotechnology, 2009. 27(3): p. 275-80.)
Compounds respond is measured by the increase in cells based on ATP levels (Promega:CellTiterGlo®) after an incubation period of 4 days.
NSCs are thawed and expanded over 3 passages. On the 14th day, NSCs are seeded in Polyornithin/Laminin coated 384 well plates at a cell density of 21′000 cells/cm^2 in a media volume of 38 μl.
4 hours after cell seeding, compound solutions are added at a volume of 2 μl. Stock solutions of the compounds (water, 5% DMSO) are diluted to obtain a dose response (11 points, dilution factor is 2), ranging from 8 μM to 8 nM. Controls are run to consistently determine the neurogenic properties of the cells: • Negative (neutral) control is cell culture Media (final DMSO concentration: 0.25%). Positive controls are: • 1. cell culture Media+100 ng/ml FGF2 (final DMSO concentration: 0.1%) • 2. cell culture Media+20 ng/ml EGF (final DMSO concentration: 0.1%) • 3. cell culture Media+100 ng/ml Wnt3a (final DMSO concentration: 0.1%)
After 4 days incubation at 37° C., 5% CO2, the amount of ATP per well is quantified. The ATP concentration is proportional to the cell number. ATP is quantified by using the Promega CellTiterGlo® kit. The CellTiterGlo® reagents contain a cell lysis buffer, a thermo stable luciferase (UltraGlo™ recombinant luciferase), magnesium and luciferin. Luciferin reacts with ATP producing oxyluciferin, AMP and light. The luminescence signal is proportional to the ATP content.
The value of negative (neutral) control is determined for each assay plate by taking the average of 16 negative control wells. The neurogenic compound response is calculated for each compound as (compound/Negative Control)* 100.
The values of EC150 from the dose response curve are determined for each test compound. The EC150 is the compound concentration at which 150% activity of control (100%) is reached.
(Cellular ATP, detected with luciferase, serves as a proxy for viable cell number.)

The structures appear in SMILES notation.

For `Fc1ccc(-c2onc3ccc(-c4ccnn4-c4ccccc4Cl)cc23)cc1` [Example 41, 5-[2-(2-Chloro-phenyl)-2H-pyrazol-3-yl]-3-(4-fluoro-phenyl)-benzo[c]isoxazole], the melting point is 161 °C. In data set [1], this molecule yielded an EC (150% of control) of 0.22 µM.

As for `Fc1ccccc1-n1nccc1-c1ccc2noc(-c3ccc(C(F)(F)F)cc3)c2c1` [Example 4, 5-[2-(2-Fluoro-phenyl)-2H-pyrazol-3-yl]-3-(4-trifluoromethyl-phenyl)-benzo[c]isoxazole], the melting point came out at 156 °C. The molecule also gave an EC (150% of control) in data set [1] of 0.92 µM.

In turn, `COc1ccc(-n2nccc2-c2ccc3noc(-c4cccc(F)c4)c3c2)cc1` [Example 21, 3-(3-Fluoro-phenyl)-5-[2-(4-methoxy-phenyl)-2H-pyrazol-3-yl]-benzo[c]isoxazole] came in with a melting point of 203 °C. The EC (150% of control) in data set [1] was 0.51 µM.

Consider `Fc1ccc(-c2onc3ccc(-c4ccnn4-c4ccccn4)cc23)cc1` [Example 35, 3-(4-Fluoro-phenyl)-5-(2-pyridin-2-yl-2H-pyrazol-3-yl)-benzo[c]isoxazole], for which the melting point worked out at 175 °C. Also, in data set [1], the EC (150% of control) was found to be 0.04 µM.

With `Fc1ccccc1-n1nccc1-c1ccc2noc(-c3ccc(Cl)cc3)c2c1` [Example 5, 3-(4-Chloro-phenyl)-5-[2-(2-fluoro-phenyl)-2H-pyrazol-3-yl]-benzo[c]isoxazole], the melting point was found to be 191 °C. The EC (150% of control) in data set [1] was 0.033 µM.

`Cc1ccc(-n2nccc2-c2ccc3noc(-c4ccc(C(F)(F)F)cc4)c3c2)cc1` [Example 17, 5-(2-p-Tolyl-2H-pyrazol-3-yl)-3-(4-trifluoromethyl-phenyl)-benzo[c]isoxazole] displayed a melting point of 173 °C. In data set [1], this molecule came in with an EC (150% of control) of 1.13 µM.

Molecule `Cc1ccc(-c2onc3ccc(-c4ccnn4-c4ccc(F)cc4F)cc23)cc1` [Example 30, 5-[2-(2,4-Difluoro-phenyl)-2H-pyrazol-3-yl]-3-p-tolyl-benzo[c]isoxazole] returned a melting point of 147 °C. Moreover, the EC (150% of control) in data set [1] is 0.04 µM.

In turn, `COc1ccc(-c2onc3ccc(-c4ccnn4-c4ccc(C)cc4)cc23)cc1` [Example 19, 3-(4-Methoxy-phenyl)-5-(2-p-tolyl-2H-pyrazol-3-yl)-benzo[c]isoxazole] yielded a melting point of 165 °C. The molecule further displayed an EC (150% of control) in data set [1] of 0.045 µM.

For `Fc1ccc(-c2onc3ccc(-c4ccnn4-c4ccc(F)cc4F)cc23)cc1` [Example 28, 5-[2-(2,4-Difluoro-phenyl)-2H-pyrazol-3-yl]-3-(4-fluoro-phenyl)-benzo[c]isoxazole], the melting point is 149 °C. This molecule also displayed an EC (150% of control) in data set [1] of 0.07 µM.

`Fc1ccc(-c2onc3ccc(-c4ccnn4-c4ccc(F)cc4)cc23)cc1` [Example 8, 3-(4-Fluoro-phenyl)-5-[2-(4-fluoro-phenyl)-2H-pyrazol-3-yl]-benzo[c]isoxazole] returned a melting point of 159 °C. The molecule also registered an EC (150% of control) in data set [1] of 0.25 µM.

Consider `Fc1ccc(-n2nccc2-c2ccc3noc(-c4ccc(Cl)cc4)c3c2)cc1` [Example 12, 3-(4-Chloro-phenyl)-5-[2-(4-fluoro-phenyl)-2H-pyrazol-3-yl]-benzo[c]isoxazole], for which the melting point came out at 188 °C. The molecule also displayed an EC (150% of control) in data set [1] of 0.26 µM.

As for `COc1ccc(-c2onc3ccc(-c4ccnn4-c4ccc(F)cc4F)cc23)cc1F` [Example 40, 5-[2-(2,4-Difluoro-phenyl)-2H-pyrazol-3-yl]-3-(3-fluoro-4-methoxy-phenyl)-benzo[c]isoxazole], the melting point turned out to be 183 °C. The same molecule displayed an EC (150% of control) in data set [1] of 0.23 µM.

For `Cc1ccc(-c2onc3ccc(-c4ccnn4-c4ccc(C)cc4)cc23)cc1` [Example 16, 3-p-Tolyl-5-(2-p-tolyl-2H-pyrazol-3-yl)-benzo[c]isoxazole], the melting point is 190 °C. In data set [1], this molecule returned an EC (150% of control) of 0.055 µM.

Regarding `Cc1ccc(-c2onc3ccc(-c4ccnn4-c4ccccc4Cl)cc23)cc1` [Example 43, 5-[2-(2-Chloro-phenyl)-2H-pyrazol-3-yl]-3-p-tolyl-benzo[c]isoxazole], the melting point came out at 176 °C. Besides, in data set [1], the EC (150% of control) was 0.15 µM.

For `COc1ccc(-c2onc3ccc(-c4ccnn4-c4ccccc4F)cc23)cc1` [Example 6, 5-[2-(2-Fluoro-phenyl)-2H-pyrazol-3-yl]-3-(4-methoxy-phenyl)-benzo[c]isoxazole], the melting point was determined as 134 °C. Besides, the EC (150% of control) in data set [1] was 0.073 µM.

As to `Fc1cccc(-c2onc3ccc(-c4ccnn4-c4ccccc4F)cc23)c1` [Example 2, 3-(3-Fluoro-phenyl)-5-[2-(2-fluoro-phenyl)-2H-pyrazol-3-yl]-benzo[c]isoxazole], the melting point stood at 186 °C. The molecule further displayed an EC (150% of control) in data set [1] of 0.29 µM.

For the molecule `Fc1ccc(-n2nccc2-c2ccc3noc(-c4ccc(Cl)cc4)c3c2)c(F)c1` [Example 32, 3-(4-Chloro-phenyl)-5-[2-(2,4-difluoro-phenyl)-2H-pyrazol-3-yl]-benzo[c]isoxazole], the melting point came to 155 °C. The EC (150% of control) in data set [1] turned out to be 0.073 µM.

As for `COc1ccc(-c2onc3ccc(-c4ccnn4-c4ccc(C)cc4)cc23)cc1F` [Example 39, 3-(3-Fluoro-4-methoxy-phenyl)-5-(2-p-tolyl-2H-pyrazol-3-yl)-benzo[c]isoxazole], the melting point amounted to 197 °C. This molecule displayed an EC (150% of control) in data set [1] of 0.25 µM.

Consider `COc1ccc(-c2onc3ccc(-c4ccnn4-c4ccc(F)cc4)cc23)cc1` [Example 13, 5-[2-(4-Fluoro-phenyl)-2H-pyrazol-3-yl]-3-(4-methoxy-phenyl)-benzo[c]isoxazole], for which the melting point was 153 °C. For the same molecule, in data set [1], the EC (150% of control) amounted to 0.39 µM.

In turn, `Fc1ccc(-n2nccc2-c2ccc3noc(-c4cccs4)c3c2)cc1` [Example 44, 5-[2-(4-Fluoro-phenyl)-2H-pyrazol-3-yl]-3-thiophen-2-yl-benzo[c]isoxazole] yielded a melting point of 154 °C. The molecule also yielded an EC (150% of control) in data set [1] of 0.17 µM.

The term melting point denotes the temperature, or range, at which the solid turns liquid.
